Test results as given in ChEMBL document CHEMBL1148658, “New HIV-1 reverse transcriptase inhibitors based on a tricyclic benzothiophene scaffold: synthesis, resolution, and inhibitory activity” (Bioorg Med Chem Lett, 2006).

The compounds below were run against Human immunodeficiency virus type 1 reverse transcriptase (Human immunodeficiency virus 1, UniProt Q72547) (assay: Inhibition of wild type HIV1 reverse transcriptase in 293T cells).
Assay type: cell-based

COC(=O)C1=C(N2CCCC2)C2c3ccccc3SC12C(=O)OC (configuration not stated) and COC(=O)C1=C(N2CCCC2)[C@H]2c3ccccc3S[C@@]12C(=O)OC are within 1.5-fold of each other in IC50: 1.2 µM for the first, 0.8 µM for the second.

CCOC(=O)C1=C(N2CCCC2)[C@H]2c3ccccc3S[C@@]12C(=O)OCC and CCOC(=O)C1=C(N2CCCC2)[C@@H]2c3ccccc3S[C@]12C(=O)OCC cannot be ordered by IC50: over 20 µM for the first, over 20 µM for the second.

Compared with COC(=O)C1=C(N2CCC[C@@H]2C)[C@H]2c3ccccc3S[C@@]12C(=O)OC, COC(=O)C1=C(N2CCC[C@@H]2C)[C@@H]2c3ccccc3S[C@]12C(=O)OC is higher in IC50: 2.3 µM for the first, over 25 µM for the second.

Compared with COC[C@H]1CCCN1C1=C(C(=O)OC)[C@@]2(C(=O)OC)Sc3ccccc3[C@@H]12, COC[C@H]1CCCN1C1=C(C(=O)OC)C2(C(=O)OC)Sc3ccccc3C12 (some centres not stated) is lower in IC50: over 50 µM for the first, 48 µM for the second.

COC(=O)C1=C(N2CCC2)C2c3ccccc3SC12C(=O)OC (configuration not stated) and COC(=O)C1=C(N2CCCC2)[C@@H]2c3ccccc3S[C@]12C(=O)OC cannot be ordered by IC50: over 10 µM for the first, over 20 µM for the second.

First: COC(=O)C1=C(N2CCCCC2)C2c3ccccc3SC12C(=O)OC (configuration not stated)
Second: COC(=O)C1=C(N2CCCCC2)[C@@H]2c3ccccc3S[C@]12C(=O)OC
The IC50 of the first is lower: 8.9 µM for the first, over 40 µM for the second.

Going from COC(=O)C1=C(N2CC=CC2)C2c3ccccc3SC12C(=O)OC (configuration not stated) to COC(=O)C1=C(N2CCCCC2)[C@H]2c3ccccc3S[C@@]12C(=O)OC, the IC50 rises from 5.1 µM to 7.7 µM (1.5-fold). The first is the more potent here.

First: COC[C@H]1CCCN1C1=C(C(=O)OC)[C@]2(C(=O)OC)Sc3ccccc3[C@H]12
Second: COC(=O)C1=C(N2CCC[C@H]2C)[C@H]2c3ccccc3S[C@@]12C(=O)OC
The IC50 of the first is 76-fold higher: 38 µM for the first, 0.5 µM for the second. The second is the more potent here.

CC(C)(C)OC(=O)C1=C(N2CCCC2)C2c3ccccc3SC12C(=O)OC(C)(C)C (configuration not stated) and CCOC(=O)C1=C(N2CCCC2)C2c3ccccc3SC12C(=O)OCC (configuration not stated) cannot be ordered by IC50: over 20 µM for the first, over 20 µM for the second.

Work on COC(=O)C1=C(N2CCC[C@H]2C)[C@@H]2c3ccccc3S[C@]12C(=O)OC yielded an IC50 of 11 µM.

What follows are compounds tested against Human immunodeficiency virus type 1 reverse transcriptase (Human immunodeficiency virus 1, UniProt Q72547, Y181C) (assay: Inhibition of HIV1 reverse transcriptase Y181C mutant in 293T cells).
Assay type: cell-based

COC(=O)C1=C(N2CCCC2)C2c3ccccc3SC12C(=O)OC (configuration not stated) showed an IC50 of over 30 µM.

The compounds below were run against Human immunodeficiency virus type 1 reverse transcriptase (Human immunodeficiency virus 1, UniProt Q72547, Y188C) (assay: Inhibition of HIV1 reverse transcriptase Y188C mutant in 293T cells).
Assay type: cell-based

COC(=O)C1=C(N2CCCC2)C2c3ccccc3SC12C(=O)OC (configuration not stated) showed an IC50 of over 30 µM.

Each compound was assayed against Human immunodeficiency virus type 1 reverse transcriptase (Human immunodeficiency virus 1, UniProt Q72547, K103N) (assay: Inhibition of HIV1 reverse transcriptase K103N mutant in 293T cells).
Assay type: cell-based

COC(=O)C1=C(N2CCCC2)C2c3ccccc3SC12C(=O)OC (configuration not stated) was tested, and the IC50 was over 30 µM.
